The values that follow come from patent publication US5892063A (Hauser, Inc., priority 1997, dated 1999).

By GI50 is commonly meant the concentration at which growth is held to half of that of the control.

Test [1] deals with SNB-75. Briefly: SRB growth screen, CNS cancer SNB-75. The settings on record: Homo sapiens, SNB-75, 48 h.
Test [2] deals with HS 578T. Kind of test: SRB growth screen, breast cancer HS 578T. The conditions noted are these: Homo sapiens, 48 h.
Test [3] relates to cell line panel (leukemia, non-small-cell lung cancer, colon, CNS, melanoma, ovarian, renal, prostate and breast cancers). Kind of test: SRB growth screen, whole cell line panel. Format: cell-based. The method, then:
The screening assay is performed on 96-well microtitre plates. […] Duplicate wells are prepared for all concentrations; "time-zero" and "nodrug" controls are also provided for each test. […] One hundred microliters of SRB solution (0.4% w/v in 1% acetic acid) is added to each microtitre well and incubated for 10 minutes at room temperature.
The response parameters GI50 and LC50 are interpolated values representing the concentrations at which the percentage growth (PG) is +50 and -50 respectively:
GI50 is the concentration for which the PG=+50.
TGI is the concentration for which PG=0.
LC50 is the concentration for which the PG=-50. […] This is interpreted as cytotoxicity.
The data represented in Table I is graphically represented in FIGS. 1a and 1b through FIGS. 9a and 9b. […] The following is an example of how the information in Table I and in the Figures is interpreted.

The subject of test [4] is tumor models. The settings on record: cited from earlier work.
The subject of test [5] is microtubule. The conditions noted are these: cited from earlier work.
[6] abbreviates: read-out: Log10 GI50 (converted).
The mark [7] stands for this setting: read-out: Log10 LC50 (converted).

As for `CC(=O)O[C@H]1C(=O)[C@@]2(C)[C@H]([C@H](OC(=O)c3ccccc3)[C@]3(O)C[C@H](OC(=O)[C@H](O)[C@@H](NC(=O)C4(C)OC4C)c4ccccc4)C(C)=C1C3(C)C)[C@]1(OC(C)=O)CO[C@@H]1C[C@@H]2O` (stereo partly drawn) [Ceph-epoxide, cephalomannine epoxide], the concentration for 50% growth inhibition (GI50) in test [1] (setting [6]) and in test [2] (setting [6]) was less than 10 nM each time. Also, the CC50 in test [1] (setting [7]) and in test [2] (setting [7]) was more than 100000 nM each time. Also, the IC (TGI) in test [2] (read-out: Log10 TGI) is 55 nM. Besides, the “potency as compared to paclitaxel” value in test [3] (on the whole, all cell lines) is “equivalent to and in many instances greater than that of paclitaxel's”. The “Log10 TGI, Range” value in test [3] (range over cell lines (log10 units)) came to 4.00.
As for `CC(=O)O[C@H]1C(=O)[C@@]2(C)[C@H]([C@H](OC(=O)c3ccccc3)[C@]3(O)C[C@H](OC(=O)[C@H](O)[C@@H](NC(=O)c4ccccc4)c4ccccc4)C(C)=C1C3(C)C)[C@]1(OC(C)=O)CO[C@@H]1C[C@@H]2O` [Paclitaxel, paclitaxel, reference compound], the “activity in model tumor systems” value in test [4] is reported as “excellent activity”. For the same molecule, the effect on microtubules entry in test [5] is “stabilizes microtubules and inhibits depolymerization back to tubulin”.
